# From US20060110456A1, “Method for biocidal and/or biostatic treatment and compositions therefor” (NATIONAL UNIVERSITY OF SINGAPORE, priority 2004, published 2006)
# Key:
# [1] = system: Balanus amphitrite cyprids; conditions: reported value of commercially available biocide (Willemsen et al., 1998); cited from earlier work
# [2] = system: marine bacteria (26 strains); test: Disk inhibition assay; type: cell-based, marine bacteria isolated from Singapore fouling communities; conditions: for zone of inhibition at 5 µg/disc: 5 μg per disc; for zone of inhibition at 30 µg/disc: 30 μg per disc; for zone of inhibition at 15 µg/disc: 15 μg per disc
# Experimental: Preparation of Drugs onto Disks for Assay
# The non-antibiotic pharmaceuticals of Table 1 were prepared in the following way. A tablet with a known amount of active ingredient (as stated in the product information) was ground in a mortar and pestle and suspended in sterile deionized water to a concentration of 2 mg ml^−1. These samples were sonicated for at least 1 min. […] The two halves of the capsule were separated and the powder released straight into a bottle and suitable amount of water added to make a concentration of 2 mg ml^−1.
# As a comparison to the pharmaceuticals, to determine the susceptibility of the bacterial isolates to conventional antibiotics, commercially available antibiotic discs were used. Antibiotic discs (Oxoid® CT series) containing Ampicillin [Amp] (2 and 10 μg), Erythromycin [Ery] (5 and 15 μg), Streptomycin [Str] (10 and 25 μg) and Tetracycline [Tet] (5 and 30 μg) were placed on lawns of the bacterial strains inoculated as described below.
# Sterile swabs dipped into the cultures were used to inoculate Marine Agar plates with a bacterial lawn by smearing the culture over the surface. After inoculating the plates, discs with antibiotics, pharmaceuticals or control blanks were placed on each plate. Each concentration of antibiotic or pharmaceutical was tested with three replicates on three separate occasions. After the disks were placed on the agar surface, plates were incubated overnight in the dark at 30° C. After incubation, plates were examined for zones of inhibition or clearing around control and treated disks. The diameter of any zone of clearing or inhibition was measured using Vernier calipers.
# The assay was repeated three times with three replicates for each concentration used, each time.
smiles,measurement,setting,value
CCCCCCCCn1sc(Cl)c(Cl)c1=O [Sea Nine],ED50,[1],0.33 ppm
"CN(C)[C@@H]1C(O)=C(C(N)=O)C(=O)[C@@]2(O)C(O)=C3C(=O)c4c(O)cccc4[C@@](C)(O)[C@H]3C[C@@H]12 [Tet, tetracycline]",zone of inhibition at 5 µg/disc,[2]; strain 1 (Rhodovulum),< 6 mm
same,zone of inhibition at 30 µg/disc,[2]; strain 1 (Rhodovulum),< 6 mm
same,zone of inhibition at 5 µg/disc,[2]; strain 2 (Erythrobacter),< 6 mm
same,zone of inhibition at 30 µg/disc,[2]; strain 2 (Erythrobacter),< 6 mm
same,zone of inhibition at 5 µg/disc,[2]; strain 3 (Erythrobacter),< 6 mm
same,zone of inhibition at 30 µg/disc,[2]; strain 3 (Erythrobacter),< 6 mm
same,zone of inhibition at 5 µg/disc,[2]; strain 4 (Bacillus),10 to 19 mm
same,zone of inhibition at 30 µg/disc,[2]; strain 4 (Bacillus),10 to 19 mm
same,zone of inhibition at 5 µg/disc,[2]; strain 6 (Vibrio),< 6 mm
same,zone of inhibition at 30 µg/disc,[2]; strain 6 (Vibrio),6 to 9 mm
same,zone of inhibition at 5 µg/disc,[2]; strain 7 (Vibrio),< 6 mm
same,zone of inhibition at 30 µg/disc,[2]; strain 7 (Vibrio),6 to 9 mm
same,zone of inhibition at 5 µg/disc,[2]; strain 8 (Bacillus),6 to 9 mm
same,zone of inhibition at 30 µg/disc,[2]; strain 8 (Bacillus),10 to 19 mm
same,zone of inhibition at 5 µg/disc,[2]; strain 9 (Bacillus),10 to 19 mm
same,zone of inhibition at 30 µg/disc,[2]; strain 9 (Bacillus),10 to 19 mm
same,zone of inhibition at 5 µg/disc,[2]; strain 10 (Halobacillus),30 to 39 mm
same,zone of inhibition at 30 µg/disc,[2]; strain 10 (Halobacillus),10 to 19 mm
same,zone of inhibition at 5 µg/disc,[2]; strain 11 (Pseudomonas),< 6 mm
same,zone of inhibition at 30 µg/disc,[2]; strain 11 (Pseudomonas),< 6 mm
same,zone of inhibition at 5 µg/disc,[2]; strain 12 (Gordonia),< 6 mm
same,zone of inhibition at 30 µg/disc,[2]; strain 12 (Gordonia),30 to 39 mm
same,zone of inhibition at 5 µg/disc,[2]; strain 13 (Bacillus),6 to 9 mm
same,zone of inhibition at 30 µg/disc,[2]; strain 13 (Bacillus),10 to 19 mm
same,zone of inhibition at 5 µg/disc,[2]; strain 14 (Vibrio),< 6 mm
same,zone of inhibition at 30 µg/disc,[2]; strain 14 (Vibrio),10 to 19 mm
same,zone of inhibition at 5 µg/disc,[2]; strain 16 (Pseudoalteromonas),< 6 mm
same,zone of inhibition at 30 µg/disc,[2]; strain 16 (Pseudoalteromonas),< 6 mm
same,zone of inhibition at 5 µg/disc,[2]; strain 17 (Gordonia),< 6 mm
same,zone of inhibition at 30 µg/disc,[2]; strain 17 (Gordonia),< 6 mm
same,zone of inhibition at 5 µg/disc,[2]; strain 18 (Microbacterium),< 6 mm
same,zone of inhibition at 30 µg/disc,[2]; strain 18 (Microbacterium),6 to 9 mm
same,zone of inhibition at 5 µg/disc,[2]; strain 19 (Erythrobacter),< 6 mm
same,zone of inhibition at 30 µg/disc,[2]; strain 19 (Erythrobacter),< 6 mm
same,zone of inhibition at 5 µg/disc,[2]; strain 20,< 6 mm
same,zone of inhibition at 30 µg/disc,[2]; strain 20,10 to 19 mm
same,zone of inhibition at 5 µg/disc,[2]; strain 21,< 6 mm
same,zone of inhibition at 30 µg/disc,[2]; strain 21,10 to 19 mm
same,zone of inhibition at 5 µg/disc,[2]; strain 22,6 to 9 mm
same,zone of inhibition at 30 µg/disc,[2]; strain 22,10 to 19 mm
same,zone of inhibition at 5 µg/disc,[2]; strain 24,< 6 mm
same,zone of inhibition at 30 µg/disc,[2]; strain 24,< 6 mm
same,zone of inhibition at 5 µg/disc,[2]; strain 26,< 6 mm
same,zone of inhibition at 30 µg/disc,[2]; strain 26,< 6 mm
same,zone of inhibition at 5 µg/disc,[2]; strain 27,< 6 mm
same,zone of inhibition at 30 µg/disc,[2]; strain 27,10 to 19 mm
same,zone of inhibition at 5 µg/disc,[2]; strain 28,< 6 mm
same,zone of inhibition at 30 µg/disc,[2]; strain 28,10 to 19 mm
same,zone of inhibition at 5 µg/disc,[2]; strain 29,10 to 19 mm
same,zone of inhibition at 30 µg/disc,[2]; strain 29,20 to 29 mm
same,zone of inhibition at 5 µg/disc,[2]; strain 30,10 to 19 mm
same,zone of inhibition at 30 µg/disc,[2]; strain 30,10 to 19 mm
"CC[C@H]1OC(=O)[C@H](C)[C@@H](O[C@H]2C[C@@](C)(OC)[C@@H](O)[C@H](C)O2)[C@H](C)[C@@H](O[C@@H]2O[C@H](C)C[C@H](N(C)C)[C@H]2O)[C@](C)(O)C[C@@H](C)C(=O)[C@H](C)[C@@H](O)[C@]1(C)O [Ery, erythromycin]",Effectiveness of antibiotics against strains of marine bacteria,"[2]; commercial antibiotic discs, in words",effective against most of the strains of marine bacteria
same,zone of inhibition at 5 µg/disc,[2]; strain 1 (Rhodovulum),< 6 mm
same,zone of inhibition at 15 µg/disc,[2]; strain 1 (Rhodovulum),< 6 mm
same,zone of inhibition at 5 µg/disc,[2]; strain 2 (Erythrobacter),< 6 mm
same,zone of inhibition at 15 µg/disc,[2]; strain 2 (Erythrobacter),20 to 29 mm
same,zone of inhibition at 5 µg/disc,[2]; strain 3 (Erythrobacter),10 to 19 mm
same,zone of inhibition at 15 µg/disc,[2]; strain 3 (Erythrobacter),20 to 29 mm
same,zone of inhibition at 5 µg/disc,[2]; strain 4 (Bacillus),> 40 mm
same,zone of inhibition at 15 µg/disc,[2]; strain 4 (Bacillus),30 to 39 mm
same,zone of inhibition at 5 µg/disc,[2]; strain 6 (Vibrio),< 6 mm
same,zone of inhibition at 15 µg/disc,[2]; strain 6 (Vibrio),10 to 19 mm
same,zone of inhibition at 5 µg/disc,[2]; strain 7 (Vibrio),10 to 19 mm
same,zone of inhibition at 15 µg/disc,[2]; strain 7 (Vibrio),10 to 19 mm
same,zone of inhibition at 5 µg/disc,[2]; strain 8 (Bacillus),20 to 29 mm
same,zone of inhibition at 15 µg/disc,[2]; strain 8 (Bacillus),30 to 39 mm
same,zone of inhibition at 5 µg/disc,[2]; strain 9 (Bacillus),30 to 39 mm
same,zone of inhibition at 15 µg/disc,[2]; strain 9 (Bacillus),30 to 39 mm
same,zone of inhibition at 5 µg/disc,[2]; strain 10 (Halobacillus),30 to 39 mm
same,zone of inhibition at 15 µg/disc,[2]; strain 10 (Halobacillus),> 40 mm
same,zone of inhibition at 5 µg/disc,[2]; strain 11 (Pseudomonas),20 to 29 mm
same,zone of inhibition at 15 µg/disc,[2]; strain 11 (Pseudomonas),20 to 29 mm
same,zone of inhibition at 5 µg/disc,[2]; strain 12 (Gordonia),< 6 mm
same,zone of inhibition at 15 µg/disc,[2]; strain 12 (Gordonia),10 to 19 mm
same,zone of inhibition at 5 µg/disc,[2]; strain 13 (Bacillus),20 to 29 mm
same,zone of inhibition at 15 µg/disc,[2]; strain 13 (Bacillus),20 to 29 mm
same,zone of inhibition at 5 µg/disc,[2]; strain 14 (Vibrio),< 6 mm
same,zone of inhibition at 15 µg/disc,[2]; strain 14 (Vibrio),10 to 19 mm
same,zone of inhibition at 5 µg/disc,[2]; strain 16 (Pseudoalteromonas),10 to 19 mm
same,zone of inhibition at 15 µg/disc,[2]; strain 16 (Pseudoalteromonas),6 to 9 mm
same,zone of inhibition at 5 µg/disc,[2]; strain 17 (Gordonia),> 40 mm
same,zone of inhibition at 15 µg/disc,[2]; strain 17 (Gordonia),> 40 mm
same,zone of inhibition at 5 µg/disc,[2]; strain 18 (Microbacterium),6 to 9 mm
same,zone of inhibition at 15 µg/disc,[2]; strain 18 (Microbacterium),10 to 19 mm
same,zone of inhibition at 5 µg/disc,[2]; strain 19 (Erythrobacter),20 to 29 mm
same,zone of inhibition at 15 µg/disc,[2]; strain 19 (Erythrobacter),20 to 29 mm
same,zone of inhibition at 5 µg/disc,[2]; strain 20,10 to 19 mm
same,zone of inhibition at 15 µg/disc,[2]; strain 20,20 to 29 mm
same,zone of inhibition at 5 µg/disc,[2]; strain 21,20 to 29 mm
same,zone of inhibition at 15 µg/disc,[2]; strain 21,20 to 29 mm
same,zone of inhibition at 5 µg/disc,[2]; strain 22,10 to 19 mm
same,zone of inhibition at 15 µg/disc,[2]; strain 22,30 to 39 mm
same,zone of inhibition at 5 µg/disc,[2]; strain 24,20 to 29 mm
same,zone of inhibition at 15 µg/disc,[2]; strain 24,20 to 29 mm
same,zone of inhibition at 5 µg/disc,[2]; strain 26,20 to 29 mm
same,zone of inhibition at 15 µg/disc,[2]; strain 26,20 to 29 mm
same,zone of inhibition at 5 µg/disc,[2]; strain 27,20 to 29 mm
same,zone of inhibition at 15 µg/disc,[2]; strain 27,20 to 29 mm
same,zone of inhibition at 5 µg/disc,[2]; strain 28,20 to 29 mm
same,zone of inhibition at 15 µg/disc,[2]; strain 28,20 to 29 mm
same,zone of inhibition at 5 µg/disc,[2]; strain 29,30 to 39 mm
same,zone of inhibition at 15 µg/disc,[2]; strain 29,20 to 29 mm
same,zone of inhibition at 5 µg/disc,[2]; strain 30,20 to 29 mm
same,zone of inhibition at 15 µg/disc,[2]; strain 30,20 to 29 mm
